# Where “and” joins values, the source holds several entries; their conditions need not be identical. Identical values can stand only once.
# Tested on: serum uric acid
# Test: Multi-dose Phase I clinical trial, serum uric acid (sUA), once daily for 10 days
# Assay type: in vivo, human
# Conditions: for Absolute sUA concentration: individual subjects 4-12; for Absolute sUA concentration, Mean (4-10): mean of subjects 4-10
# Text: A Phase 1, Randomized, Double-Blind, Placebo-Controlled Study to Evaluate Safety, Tolerability, Pharmacokinetics and Preliminary Food Effect of Multiple Rising Doses of a URAT1 Inhibitor, in Healthy Adult Male Volunteers.
# Fasted subjects receive oral doses of active or placebo, once daily, for 10 days, at the following doses:
# 36 subjects in 3 dose groups, 12 subjects/group, are randomized […] to receive active (9/group) or placebo ([…]). All study procedures are the same regardless of whether subject receives active or placebo. Total duration of subject participation, including screening period, is ˜2-4 weeks, and the total volume of blood collected from each subject during the entire study <500 mL, (less than typically collected during a volunteer blood donation).
# 5 mg, active and placebo, tablets packaged in 35 count HDPE bottles, stored at controlled room temperature (15-30° C.). Placebo tablets are designed to match the active tablets—identical size, form, taste, and color, and containing the same excipients. 1 mg doses were administered as oral solutions.
# Subjects dosed in the morning of Days 1-10 with ˜240 mL of room temp water.
# Urine, serum and plasma samples collected periodically
# PD samples frozen (−20° C.) and stored; all samples from a given subject assayed in a single analytical run.
# [1] = group 7, 1 mg once daily for 10 days, Time 192, mean of subjects 4-12
# [2] = group 7, 1 mg once daily for 10 days, Time 216, mean of subjects 4-12
# [3] = group 7, 1 mg once daily for 10 days, Time 222 (post dosing), mean of subjects 4-12
# [4] = group 7, 1 mg once daily for 10 days, Time 228 (post dosing), mean of subjects 4-12
# [5] = group 7, 1 mg once daily for 10 days, Time 240 (post dosing), mean of subjects 4-12
# [6] = group 7, 1 mg once daily for 10 days, Time 246 (post dosing), mean of subjects 4-12
# [7] = group 7, 1 mg once daily for 10 days, Time 252 (post dosing), mean of subjects 4-12
# [8] = group 7, 1 mg once daily for 10 days, Time 264 (post dosing), mean of subjects 4-12
# [9] = group 7, 1 mg once daily for 10 days, Time 270 (post dosing), mean of subjects 4-12
# [10] = group 7, 1 mg once daily for 10 days, Time 288 (post dosing), mean of subjects 4-12
# [11] = group 7, 1 mg once daily for 10 days, Time 312 (post dosing), mean of subjects 4-12
smiles,measurement,setting,value
CC(C)(Sc1ccncc1-c1ccc(C#N)c2ccccc12)C(=O)O [2-((3-(4-cyanonaphthalen-1-yl)pyridin-4-yl)thio)-2-methylpropanoic acid],"Absolute sUA concentration, Mean (4-12)","group 7, 1 mg once daily for 10 days, Time 168, mean of subjects 4-12",6.1 mg/dL
same,Absolute sUA concentration,"group 7, 1 mg once daily for 10 days, Time 192",4.6 mg/dL and 5.0 mg/dL and 4.9 mg/dL and 6.5 mg/dL and 6.1 mg/dL and 5.9 mg/dL and 5.6 mg/dL and 5.1 mg/dL and 5.5 mg/dL
same,"% sUA change (from baseline), Mean (4-12)",[1],−11.4%
same,"Absolute sUA concentration, Mean (4-12)",[1],5.5 mg/dL
same,Absolute sUA concentration,"group 7, 1 mg once daily for 10 days, Time 216",4.7 mg/dL (2×) and 4.9 mg/dL (2×) and 6.1 mg/dL and 5.8 mg/dL and 5.3 mg/dL and 5.6 mg/dL and 5.9 mg/dL
same,"% sUA change (from baseline), Mean (4-12)",[2],−13.6%
same,"Absolute sUA concentration, Mean (4-12)",[2],5.3 mg/dL
same,Absolute sUA concentration,"group 7, 1 mg once daily for 10 days, Time 222 (post dosing)",4.7 mg/dL and 5.2 mg/dL and 4.9 mg/dL and 6.3 mg/dL and 5.9 mg/dL and 5.8 mg/dL and 5.4 mg/dL and 5.0 mg/dL and 5.5 mg/dL
same,"% sUA change (from baseline), Mean (4-12)",[3],−12.2%
same,"Absolute sUA concentration, Mean (4-12)",[3],5.4 mg/dL
same,Absolute sUA concentration,"group 7, 1 mg once daily for 10 days, Time 228 (post dosing)",4.3 mg/dL and 4.8 mg/dL (2×) and 4.9 mg/dL and 6.2 mg/dL and 5.6 mg/dL and 5.5 mg/dL and 5.3 mg/dL and 5.4 mg/dL
same,"% sUA change (from baseline), Mean (4-12)",[4],−15.6%
same,"Absolute sUA concentration, Mean (4-12)",[4],5.2 mg/dL
same,Absolute sUA concentration,"group 7, 1 mg once daily for 10 days, Time 240 (post dosing)",4.8 mg/dL and 5.5 mg/dL and 5.3 mg/dL and 6.9 mg/dL and 6.2 mg/dL (2×) and 5.9 mg/dL and 5.2 mg/dL and 6.0 mg/dL
same,"% sUA change (from baseline), Mean (4-12)",[5],−6.3%
same,"Absolute sUA concentration, Mean (4-12)",[5],5.8 mg/dL
same,Absolute sUA concentration,"group 7, 1 mg once daily for 10 days, Time 246 (post dosing)",4.4 mg/dL
same,"% sUA change (from baseline), Mean (4-12)",[6],−13.2%
same,"Absolute sUA concentration, Mean (4-12)",[6],5.4 mg/dL
same,"% sUA change (from baseline), Mean (4-12)",[7],−10.6%
same,"Absolute sUA concentration, Mean (4-12)",[7],5.5 mg/dL
same,"% sUA change (from baseline), Mean (4-12)",[8],−10.3%
same,"Absolute sUA concentration, Mean (4-12)",[8],5.5 mg/dL
same,"% sUA change (from baseline), Mean (4-12)",[9],−17.4%
same,"Absolute sUA concentration, Mean (4-12)",[9],5.1 mg/dL
same,"% sUA change (from baseline), Mean (4-12)",[10],−19.8%
same,"Absolute sUA concentration, Mean (4-12)",[10],5.0 mg/dL
same,"% sUA change (from baseline), Mean (4-12)",[11],−14.9%
same,"Absolute sUA concentration, Mean (4-12)",[11],5.3 mg/dL
same,"% sUA change (from baseline), Mean (4-12)","group 8, 5 mg once daily for 10 days, Time 0, mean of active subjects",0%
same,"Absolute sUA concentration, Mean (4-10)","group 8, 5 mg once daily for 10 days, Time 0",5.9 mg/dL
same,"% sUA change (from baseline), Mean (4-12)","group 8, 5 mg once daily for 10 days, Time 6, mean of active subjects",−20.5%
same,"Absolute sUA concentration, Mean (4-10)","group 8, 5 mg once daily for 10 days, Time 6",4.7 mg/dL
same,"% sUA change (from baseline), Mean (4-12)","group 8, 5 mg once daily for 10 days, Time 12, mean of active subjects",−25.6%
same,"Absolute sUA concentration, Mean (4-10)","group 8, 5 mg once daily for 10 days, Time 12",4.4 mg/dL
same,"% sUA change (from baseline), Mean (4-12)","group 8, 5 mg once daily for 10 days, Time 24, mean of active subjects",−21.1%
same,"Absolute sUA concentration, Mean (4-10)","group 8, 5 mg once daily for 10 days, Time 24",4.7 mg/dL
same,"% sUA change (from baseline), Mean (4-12)","group 8, 5 mg once daily for 10 days, Time 48, mean of active subjects",−30.9%
same,"Absolute sUA concentration, Mean (4-10)","group 8, 5 mg once daily for 10 days, Time 48",4.1 mg/dL
same,"% sUA change (from baseline), Mean (4-12)","group 8, 5 mg once daily for 10 days, Time 72, mean of active subjects",−33.7%
same,"Absolute sUA concentration, Mean (4-10)","group 8, 5 mg once daily for 10 days, Time 72",3.9 mg/dL
same,"% sUA change (from baseline), Mean (4-12)","group 8, 5 mg once daily for 10 days, Time 96, mean of active subjects",−30.4%
same,"Absolute sUA concentration, Mean (4-10)","group 8, 5 mg once daily for 10 days, Time 96",4.1 mg/dL
same,"% sUA change (from baseline), Mean (4-12)","group 8, 5 mg once daily for 10 days, Time 102, mean of active subjects",−37.8%
same,"Absolute sUA concentration, Mean (4-10)","group 8, 5 mg once daily for 10 days, Time 102",3.7 mg/dL
same,"% sUA change (from baseline), Mean (4-12)","group 8, 5 mg once daily for 10 days, Time 108, mean of active subjects",−40.2%
same,"Absolute sUA concentration, Mean (4-10)","group 8, 5 mg once daily for 10 days, Time 108",3.5 mg/dL
same,"% sUA change (from baseline), Mean (4-12)","group 8, 5 mg once daily for 10 days, Time 120, mean of active subjects",−30%
same,"Absolute sUA concentration, Mean (4-10)","group 8, 5 mg once daily for 10 days, Time 120",4.1 mg/dL
same,"% sUA change (from baseline), Mean (4-12)","group 8, 5 mg once daily for 10 days, Time 144, mean of active subjects",−35.2%
same,"Absolute sUA concentration, Mean (4-10)","group 8, 5 mg once daily for 10 days, Time 144",3.8 mg/dL
same,"% sUA change (from baseline), Mean (4-12)","group 8, 5 mg once daily for 10 days, Time 168, mean of active subjects",−38.1%
same,"Absolute sUA concentration, Mean (4-10)","group 8, 5 mg once daily for 10 days, Time 168",3.6 mg/dL
same,"% sUA change (from baseline), Mean (4-12)","group 8, 5 mg once daily for 10 days, Time 192, mean of active subjects",−35.7%
same,"Absolute sUA concentration, Mean (4-10)","group 8, 5 mg once daily for 10 days, Time 192",3.8 mg/dL
same,"% sUA change (from baseline), Mean (4-12)","group 8, 5 mg once daily for 10 days, Time 216, mean of active subjects",−33.4%
same,"Absolute sUA concentration, Mean (4-10)","group 8, 5 mg once daily for 10 days, Time 216",3.9 mg/dL
same,"% sUA change (from baseline), Mean (4-12)","group 8, 5 mg once daily for 10 days, Time 222 (post dosing), mean of active subjects",−39.6%
same,"Absolute sUA concentration, Mean (4-10)","group 8, 5 mg once daily for 10 days, Time 222 (post dosing)",3.6 mg/dL
same,"% sUA change (from baseline), Mean (4-12)","group 8, 5 mg once daily for 10 days, Time 228 (post dosing), mean of active subjects",−41.4%
same,"Absolute sUA concentration, Mean (4-10)","group 8, 5 mg once daily for 10 days, Time 228 (post dosing)",3.5 mg/dL
same,"% sUA change (from baseline), Mean (4-12)","group 8, 5 mg once daily for 10 days, Time 240 (post dosing), mean of active subjects",−31.2%
same,"Absolute sUA concentration, Mean (4-10)","group 8, 5 mg once daily for 10 days, Time 240 (post dosing)",4.1 mg/dL
same,"% sUA change (from baseline), Mean (4-12)","group 8, 5 mg once daily for 10 days, Time 246 (post dosing), mean of active subjects",−35.8%
same,"Absolute sUA concentration, Mean (4-10)","group 8, 5 mg once daily for 10 days, Time 246 (post dosing)",3.8 mg/dL
same,"% sUA change (from baseline), Mean (4-12)","group 8, 5 mg once daily for 10 days, Time 252 (post dosing), mean of active subjects",−39.1%
same,"Absolute sUA concentration, Mean (4-10)","group 8, 5 mg once daily for 10 days, Time 252 (post dosing)",3.6 mg/dL
same,"% sUA change (from baseline), Mean (4-12)","group 8, 5 mg once daily for 10 days, Time 264 (post dosing), mean of active subjects",−31.9%
same,"Absolute sUA concentration, Mean (4-10)","group 8, 5 mg once daily for 10 days, Time 264 (post dosing)",4.0 mg/dL
same,"% sUA change (from baseline), Mean (4-12)","group 8, 5 mg once daily for 10 days, Time 270 (post dosing), mean of active subjects",−22.9%
same,"Absolute sUA concentration, Mean (4-10)","group 8, 5 mg once daily for 10 days, Time 270 (post dosing)",4.5 mg/dL
same,"% sUA change (from baseline), Mean (4-12)","group 8, 5 mg once daily for 10 days, Time 288 (post dosing), mean of active subjects",−24.8%
same,"Absolute sUA concentration, Mean (4-10)","group 8, 5 mg once daily for 10 days, Time 288 (post dosing)",4.4 mg/dL
same,"% sUA change (from baseline), Mean (4-12)","group 8, 5 mg once daily for 10 days, Time 312 (post dosing), mean of active subjects",−13.7%
same,"Absolute sUA concentration, Mean (4-10)","group 8, 5 mg once daily for 10 days, Time 312 (post dosing)",5.1 mg/dL

# Reference: patent publication US10047050B2, “3,4-di-substituted pyridine compound, methods of using and compositions comprising the same” (ARDEA BIOSCIENCES, INC., priority 2011, dated 2018)
